Measurements: PubChem BioAssay AID256 (DTP/NCI, 2004)
Several values for one entry are separate records, joined by “and”; a condition that tells them apart may be missing. Equal entries are not always repeated. Toxic doses and inconclusive results are not listed.

System: CD2F1 mice, L1210 leukemia ip, survival T/C
Assay: NCI In Vivo Anticancer Drug Screen. Data for tumor model L1210 Leukemia (intraperitoneal) in CD2F1 (CDF1) mice
Conditions: higher = longer survival
How it was run: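 Vehicle-treated tumor-bearing mice served as controls (C) for compound-treated mice (T). Reported figure is T divided by C.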

[1] = endpoint: mean survival time, dose: 100.0 mg/kg/injection, schedule: Q01DX001 (ip), vehicle: saline with Tween-80
[2] = endpoint: mean survival time, dose: 200.0 mg/kg/injection, schedule: Q01DX001 (ip), vehicle: saline with Tween-80
[3] = endpoint: mean survival time, dose: 400.0 mg/kg/injection, schedule: Q01DX001 (ip), vehicle: saline with Tween-80
[4] = endpoint: mean survival time, dose: 6.25 mg/kg/injection, schedule: Q01DX009 (ip), vehicle: saline with Tween-80
[5] = endpoint: mean survival time, dose: 12.5 mg/kg/injection, schedule: Q01DX009 (ip), vehicle: saline with Tween-80
[6] = endpoint: mean survival time, dose: 100.0 mg/kg/injection, schedule: Q04DX003 (ip), vehicle: saline with Tween-80
[7] = endpoint: mean survival time, dose: 200.0 mg/kg/injection, schedule: Q04DX003 (ip), vehicle: saline with Tween-80
[8] = endpoint: mean survival time, dose: 400.0 mg/kg/injection, schedule: Q04DX003 (ip), vehicle: saline with Tween-80

COc1cccc2c1C(=O)c1c(O)c3c(c(O)c1C2=O)C[C@@](O)(C(=O)CO)C[C@@H]3OC1CC(OC(C)=O)C(OC(C)=O)C(C)O1 (stereo not given in full)
T/C (endpoint: mean survival time, dose: 1.56 mg/kg/injection, schedule: Q01DX009 (ip), vehicle: distilled water + Tween-80): 115 % of control | T/C (endpoint: mean survival time, dose: 3.12 mg/kg/injection, schedule: Q01DX009 (ip), vehicle: distilled water + Tween-80): 122 % of control | T/C (endpoint: mean survival time, dose: 6.25 mg/kg/injection, schedule: Q01DX009 (ip), vehicle: distilled water + Tween-80): 167 % of control | T/C (endpoint: mean survival time, dose: 12.5 mg/kg/injection, schedule: Q01DX009 (ip), vehicle: distilled water + Tween-80): 153 % of control and 203 % of control | T/C (endpoint: mean survival time, dose: 25.0 mg/kg/injection, schedule: Q01DX009 (ip), vehicle: distilled water + Tween-80): 93 % of control and 100 % of control | T/C (endpoint: median survival time, dose: 1.56 mg/kg/injection, schedule: Q01DX009 (ip), vehicle: distilled water + Tween-80): 113 % of control | T/C (endpoint: median survival time, dose: 6.25 mg/kg/injection, schedule: Q01DX009 (ip), vehicle: distilled water + Tween-80): 158 % of control and 176 % of control | T/C (endpoint: median survival time, dose: 12.5 mg/kg/injection, schedule: Q01DX009 (ip), vehicle: distilled water + Tween-80): 226 % of control and 250 % of control | T/C (endpoint: median survival time, dose: 25.0 mg/kg/injection, schedule: Q01DX009 (ip), vehicle: distilled water + Tween-80): 120 % of control and 95 % of control

CN(CC(=O)C(C)(C)C)C1CCCCC1
T/C (endpoint: mean survival time, dose: 100.0 mg/kg/injection, schedule: Q04DX003 (ip), vehicle: saline): 91 % of control

[Cl][Pt+].[NH-]c1ccccc1C=Nc1ccccc1C=O
T/C (endpoint: median survival time, dose: 11.5 mg/kg/injection, schedule: Q04DX003 (ip), vehicle: saline with Tween-80): 100 % of control | T/C (endpoint: median survival time, dose: 23.0 mg/kg/injection, schedule: Q04DX003 (ip), vehicle: saline with Tween-80): 105 % of control | T/C (endpoint: median survival time, dose: 46.0 mg/kg/injection, schedule: Q04DX003 (ip), vehicle: saline with Tween-80): 105 % of control | T/C (endpoint: median survival time, dose: 92.0 mg/kg/injection, schedule: Q04DX003 (ip), vehicle: saline with Tween-80): 97 % of control | T/C (endpoint: median survival time, dose: 184.0 mg/kg/injection, schedule: Q04DX003 (ip), vehicle: saline with Tween-80): 98 % of control

C[C@@H]1C[C@H]2[C@@H]3CCC4=CC(=O)C=C[C@]4(C)[C@@]3(F)[C@@H](O)C[C@]2(C)[C@@]1(O)C(=O)CO
T/C (endpoint: mean survival time, dose: 3.12 mg/kg/injection, schedule: Q01DX009 (ip), vehicle: suspension in saline): 116 % of control | T/C (endpoint: mean survival time, dose: 6.25 mg/kg/injection, schedule: Q01DX009 (ip), vehicle: suspension in saline): 108 % of control | T/C (endpoint: mean survival time, dose: 12.5 mg/kg/injection, schedule: Q01DX009 (ip), vehicle: suspension in saline): 108 % of control | T/C (endpoint: mean survival time, dose: 25.0 mg/kg/injection, schedule: Q01DX009 (ip), vehicle: suspension in saline): 122 % of control | T/C (endpoint: mean survival time, dose: 50.0 mg/kg/injection, schedule: Q01DX009 (ip), vehicle: suspension in saline): 110 % of control

Nc1ncnc2c1ncn2C1OC(COP(=O)(O)O)C(O)C1O.[NH-]C1CCCCC1[NH-].[Pt+2] (stereo not given)
T/C (endpoint: median survival time, dose: 3.12 mg/kg/injection, schedule: Q04DX003 (ip), vehicle: saline): 101 % of control | T/C (endpoint: median survival time, dose: 6.25 mg/kg/injection, schedule: Q04DX003 (ip), vehicle: saline): 108 % of control | T/C (endpoint: median survival time, dose: 12.5 mg/kg/injection, schedule: Q04DX003 (ip), vehicle: saline): 103 % of control | T/C (endpoint: median survival time, dose: 25.0 mg/kg/injection, schedule: Q04DX003 (ip), vehicle: saline): 108 % of control | T/C (endpoint: median survival time, dose: 50.0 mg/kg/injection, schedule: Q04DX003 (ip), vehicle: saline): 112 % of control | T/C (endpoint: median survival time, dose: 100.0 mg/kg/injection, schedule: Q04DX003 (ip), vehicle: saline): 108 % of control | T/C (endpoint: median survival time, dose: 200.0 mg/kg/injection, schedule: Q04DX003 (ip), vehicle: saline): 122 % of control

COc1cccc(C(=O)NC[n+]2cccc(O)c2)c1
T/C [1]: 100 % of control | T/C [2]: 92 % of control | T/C [3]: 88 % of control

S=c1nc[nH]c2nc[nH]c12.[W]
T/C (endpoint: median survival time, dose: 60.0 mg/kg/injection, schedule: Q01DX009 (ip), vehicle: water): 151 % of control (2×) and 169 % of control | T/C (endpoint: median survival time, dose: 60.0 mg/kg/injection, schedule: Q## X009 (ip), vehicle: water): 169 % of control | T/C (endpoint: median survival time, dose: 80.0 mg/kg/injection, schedule: Q01DX009 (ip), vehicle: water): 164 % of control and 167 % of control (2×) | T/C (endpoint: median survival time, dose: 80.0 mg/kg/injection, schedule: Q## X009 (ip), vehicle: water): 164 % of control | T/C (endpoint: median survival time, dose: 100.0 mg/kg/injection, schedule: Q01DX009 (ip), vehicle: water): 154 % of control | T/C (endpoint: median survival time, dose: 100.0 mg/kg/injection, schedule: Q01DX009 (other), vehicle: water): 154 % of control | T/C (endpoint: median survival time, dose: 120.0 mg/kg/injection, schedule: Q01DX009 (ip), vehicle: water): 158 % of control (2×) and 164 % of control | T/C (endpoint: median survival time, dose: 120.0 mg/kg/injection, schedule: Q01DX009 (other), vehicle: water): 164 % of control | T/C (endpoint: median survival time, dose: 140.0 mg/kg/injection, schedule: Q01DX009 (ip), vehicle: water): 163 % of control | T/C (endpoint: median survival time, dose: 140.0 mg/kg/injection, schedule: Q## X009 (ip), vehicle: water): 163 % of control | T/C (endpoint: median survival time, dose: 160.0 mg/kg/injection, schedule: Q01DX009 (ip), vehicle: water): 164 % of control | T/C (endpoint: median survival time, dose: 160.0 mg/kg/injection, schedule: Q01DX009 (other), vehicle: water): 164 % of control

C(=NCCN1CCOCC1)=NC1CCCCC1
T/C (endpoint: mean survival time, dose: 3.13 mg/kg/injection, schedule: Q01DX009 (ip), vehicle: saline with Tween-80): 102 % of control | T/C [4]: 91 % of control | T/C (endpoint: mean survival time, dose: 6.25 mg/kg/injection, schedule: Q04DX003 (ip), vehicle: saline with Tween-80): 100 % of control | T/C [5]: 104 % of control | T/C (endpoint: mean survival time, dose: 12.5 mg/kg/injection, schedule: Q04DX003 (ip), vehicle: saline with Tween-80): 92 % of control

CN1CCN(c2ncnc3c2ncn3C2OC(CO)C(O)C2O)CC1 (stereo not given)
T/C (endpoint: mean survival time, dose: 12.5 mg/kg/injection, schedule: Q01DX005 (ip), vehicle: water): 106 % of control | T/C (endpoint: mean survival time, dose: 25.0 mg/kg/injection, schedule: Q01DX005 (ip), vehicle: water): 106 % of control | T/C (endpoint: mean survival time, dose: 50.0 mg/kg/injection, schedule: Q01DX005 (ip), vehicle: water): 112 % of control | T/C (endpoint: mean survival time, dose: 100.0 mg/kg/injection, schedule: Q01DX005 (ip), vehicle: water): 106 % of control | T/C (endpoint: mean survival time, dose: 200.0 mg/kg/injection, schedule: Q01DX005 (ip), vehicle: water): 102 % of control

Cc1ccnc([N+](=O)[O-])c1
T/C [6]: 102 % of control | T/C [7]: 96 % of control | T/C [8]: 97 % of control

O=C([O][Sb]([O]C(=O)C(Cl)(Cl)Cl)([c]1ccccc1)([c]1ccccc1)[c]1ccccc1)C(Cl)(Cl)Cl
T/C [6]: 100 % of control | T/C [7]: 93 % of control | T/C [8]: 93 % of control

CC(C)=CCC/C(C)=C/COc1ccc(/C=C2/C(=O)N(O)[C@@H](C)C(=O)N2O)cc1
T/C (endpoint: mean survival time, dose: 1.56 mg/kg/injection, schedule: Q01DX009 (ip), vehicle: saline with Tween-80): 101 % of control | T/C (endpoint: mean survival time, dose: 3.12 mg/kg/injection, schedule: Q01DX009 (ip), vehicle: saline with Tween-80): 96 % of control | T/C (endpoint: mean survival time, dose: 3.12 mg/kg/injection, schedule: Q01DX009 (ip), vehicle: saline): 94 % of control | T/C [4]: 101 % of control | T/C (endpoint: mean survival time, dose: 6.25 mg/kg/injection, schedule: Q01DX009 (ip), vehicle: saline): 96 % of control | T/C [5]: 101 % of control | T/C (endpoint: mean survival time, dose: 12.5 mg/kg/injection, schedule: Q01DX009 (ip), vehicle: saline): 100 % of control | T/C (endpoint: mean survival time, dose: 25.0 mg/kg/injection, schedule: Q01DX009 (ip), vehicle: saline with Tween-80): 106 % of control | T/C (endpoint: mean survival time, dose: 25.0 mg/kg/injection, schedule: Q01DX009 (ip), vehicle: saline): 108 % of control | T/C (endpoint: mean survival time, dose: 50.0 mg/kg/injection, schedule: Q01DX009 (ip), vehicle: saline with Tween-80): 112 % of control | T/C (endpoint: mean survival time, dose: 50.0 mg/kg/injection, schedule: Q01DX009 (ip), vehicle: saline): 100 % of control | T/C (endpoint: mean survival time, dose: 100.0 mg/kg/injection, schedule: Q01DX009 (ip), vehicle: saline): 100 % of control

COc1ccc(S(=O)[O-])cc1.C[c-]1[c-][c-][c-][c-]1.[C-]#[O+].[C-]#[O+].[Fe+6]
T/C (endpoint: mean survival time, dose: 6.25 mg/kg/injection, schedule: Q04DX002 (ip), vehicle: other): 95 % of control | T/C (endpoint: mean survival time, dose: 12.5 mg/kg/injection, schedule: Q04DX002 (ip), vehicle: other): 114 % of control | T/C (endpoint: mean survival time, dose: 25.0 mg/kg/injection, schedule: Q04DX002 (ip), vehicle: other): 100 % of control

C=C1N(c2cc3ccccc3o2)C(=O)OC12CCCCC2
T/C [1]: 101 % of control | T/C [2]: 98 % of control | T/C [3]: 91 % of control

CCCCCCCCCCNC(=O)C[n+]1cccc(C(=O)NCc2ccccc2)c1
T/C (endpoint: mean survival time, dose: 12.5 mg/kg/injection, schedule: Q01DX009 (ip), vehicle: saline sonified): 90 % of control | T/C (endpoint: mean survival time, dose: 12.5 mg/kg/injection, schedule: Q04DX003 (ip), vehicle: saline sonified): 104 % of control | T/C (endpoint: mean survival time, dose: 25.0 mg/kg/injection, schedule: Q04DX003 (ip), vehicle: saline sonified): 104 % of control | T/C (endpoint: mean survival time, dose: 50.0 mg/kg/injection, schedule: Q04DX003 (ip), vehicle: saline sonified): 101 % of control
